Experimental data: patent US20060078570A1, “Use of asafetida extract as medicine for abstinence of drugs” (priority 2004, published 2006)
Where a name gives a salt, the structure may show the parent alone.

How the values were obtained:
[1] = test system: morphine-dependent rats; experiment: Naloxone-promoted abstinence experiment in morphine-dependent rats (symptom scores and body weight decrease); assay type: in vivo, Wistar rat
[2] = test system: subjects addicted to heroin for over 10 years; experiment: Clinical trial (typical case): subjects addicted to heroin for over 10 years, asafetida injection intravenously; assay type: in vivo, human; conditions: 25 cases per group, heroin over 10 years, phenoxyimidazoline hydrochloride 0.1 mg tablet, thrice per day
[3] = test system: subjects addicted to drugs; experiment: Clinical trial: abstinence treatment of subjects addicted to drugs, asafetida injection intramuscularly; assay type: in vivo, human; conditions: 20 cases per group, thrice per day, phenoxyimidazoline hydrochloride 0.1 mg tablet
Source text: The typical performance of abstinence syndrome was as follows: yawning, lacrimation, perspiring, bad mood, anxiety, and dysphoria.
Apparently effective: the abstinence syndrome disappears completely and performance is normal.
Effective: the abstinence syndrome is obviously abated.
Ineffective: the abstinence syndrome has no obvious remission or no remission at all.
The subjects addicted to drugs were randomly grouped into asafetida injection treatment group, phenoxyimidazoline hydrochloride positive control group, placebo negative control group, wherein the phenoxyimidazoline hydrochloride is a relatively effective medicine for abstinence of drugs at present. The pharmaceuticals and usage thereof in each group were as follows:
Asafetida injection, 2 ml (equivalent to 1 g of original crude material)/bottle, thrice per day, a bottle per time, injected intramuscularly, for three consecutive days.
Phenoxyimidazoline hydrochloride, 0.1 mg/tablet, thrice per day, a tablet per time, for three consecutive days.
Placebo (physiological saline), 2 ml/bottle, thrice per day, a bottle per time, injected intramuscularly, for three consecutive days.

[4] = clonidine 0.1 mg/kg perfused, X ± S, n=10
[5] = asafetida 5 ml i.v., three days
[6] = three days, asafetida 2 ml i.m.

In the case of Clc1cccc(Cl)c1N=C1NCCN1 [clonidine, phenoxyimidazoline hydrochloride], the “Scores of performance and autonomic nervous system symptoms of rats after naloxone administration” value (“Scores” for short) ([1]; clonidine 0.1 mg/kg perfused once a day, three times, 15 min after naloxone 4 mg/kg i.p., mean ± SD, n=10) is reported as 2.22 ± 2.29, the “Scores” value ([1]; clonidine 0.1 mg/kg perfused, 30 min after naloxone) is reported as 2.68 ± 1.81 and the “Scores” value ([1]; clonidine 0.1 mg/kg perfused, 45 min after naloxone) is reported as 1.21 ± 1.80. The “Scores” value ([1]; clonidine 0.1 mg/kg perfused, 60 min after naloxone) was 1.61 ± 1.54, the “Scores” value ([1]; clonidine 0.1 mg/kg perfused, 90 min after naloxone) was 0.40 ± 0.68 and the “Scores” value ([1]; clonidine 0.1 mg/kg perfused, 120 min after naloxone) was 0 ± 0. The “body weight decreasing at 30 min after administrating naloxone” value [1, 4] was 4.077 ± 3.431 g, the “body weight decreasing at 60 min after administrating naloxone” value [1, 4] was 5.560 ± 4.960 g and the “Apparently effective, %” value [2, 5] was 60.00%. The “Effective, %” value [2, 5] was 40.00%, the “Effective, Number of Cases” value [2, 5] was 10 and the “Ineffective, %” value [2, 5] was 0%. The “Ineffective, Number of Cases” value [2, 5] was 0, the “Total effective rate %” value [2, 5] was 100% and the “Apparently effective, Number of Cases” value ([2]; three consecutive days, asafetida injection 5 ml (2.5 g crude material) intravenously) was 15. The “Apparently effective, Number of Cases” value ([3]; three consecutive days, asafetida injection 2 ml (1 g crude material) intramuscularly) was 13, the “Apparently effective, %” value [3, 6] was 65.00% and the “Effective, %” value [3, 6] was 35.00%. For the same molecule, the “Effective, Number of Cases” value [3, 6] was 7, the “Ineffective, %” value [3, 6] was 0% and the “Ineffective, Number of Cases” value [3, 6] was 0. The “Total effective rate %” value [3, 6] was 100%.
